Measurements published in article PMC8214221, “Sequence determinants in the cathelicidin LL-37 that promote inflammation via presentation of RNA to scavenger receptors” (The Journal of Biological Chemistry, 2021).
Residues, ends and D or L forms follow the SMILES beside them.

Tests used:
[1] = test system: NHEKs, IL-6 secretion in response to U1 dsRNA; assay: IL-6 secretion ELISA in NHEKs; assay type: cell-based, human; conditions: U1 dsRNA 2.5 μg/ml + peptide 2 μM, 18 h, n = 3
Description: (§1) Protein levels of human IL-6 were analyzed from cell supernatant with ELISA (n = 3). Corresponding MIC values of LL-34 peptides L1A–R34A against Staphylococcus aureus USA300 are shown in the heat map. B, human dermal endothelial cells (HDMECs) were treated with either U1 dsRNA (2.5 μg/ml) or a combination of U1 dsRNA (2.5 μg/ml) and LL-34 peptides (Pep 1–Pep 34 and Pep–parent LL-34) at 2 μM for 18 h. IL-6 ELISA results are shown (n = 3). Green bars denote loss of IL-6 protein secretion compared with parent control shown in red. C, helical wheel plot for LL-34. Amino acids with green circles denote specific residues where replacement with an alanine caused the loss of IL-6 secretion compared with parent LL-34 peptide in NHEKs cotreated with U1 dsRNA. D, in the helical wheel plot for LL-34, circled green amino acids indicate that a substitution caused a loss of vetting in HDMEC. E–H, NHEKs were treated with LL-34-parent peptide (LL-34-P), LL-34-F5A, LL-34-I24A, LL-34-F27A, and LL-34-L31A at 2 μM, either individually or in combination with U1 dsRNA (2.5 μg/ml) for 8 h. Gene expression of IL-6, IFNB1, TSLP, and CXCL10 was assessed with qRT-PCR. GAPDH was used as a reference gene (n = 3) (∗p < 0.05; ∗∗∗∗p < 0.0001). One way-ANOVA was used. IL-6, interleukin 6; LL-34, 34-amino acid peptide; MIC, minimum inhibitory concentration, ns, not significant.
We hypothesized that sequential replacement of each amino acid in LL-34 peptide with a neutral amino acid alanine might reveal the amino acid residues critical for its ability to induce inflammation in response to U1 dsRNA. First, we treated NHEKs and human dermal microvascular endothelial cells (HDMECs) with LL-34 parent peptide and each of the 34 mutants at 2 μM for 18 h and measured the secretion of interleukin 6 (IL-6) in the supernatant by ELISA (Fig. S1, A and B). […] We then treated both NHEKs and HDMECs with a combination of U1 dsRNA (2.5 μg/ml) and the LL-34 parent/mutant peptides at 2 μM for 18 h and measured IL-6 secretion (Fig. 1, A–C). […] A similar pattern of IL-6 release was observed when HDMECs were treated with the peptide library and U1 dsRNA (Fig. 1B).
Cell culture supernatant was frozen at −80 °C until use for analysis. ELISA was performed with sandwich ELISA kits (R&D Systems) and quantified on a Spectramax Absorbance reader (Molecular Biosystems). Data were analyzed with GraphPad.

[2] = test system: NHEKs, IL6, IFNB1, TSLP, CXCL10 mRNA; assay: qRT-PCR gene expression in NHEKs; assay type: cell-based, human; conditions: 18 h / 8 h (Fig. 1 legend), n = 3
Description: as §1
(§2) We further looked at mRNA abundance by quantitative RT-PCR (qRT-PCR) to evaluate gene expression for type 1 interferon IFNB1, chemokine CXCL10, and cytokines TSLP and IL6 in NHEKs treated with selected LL-34 parent, LL-34—F5A, I24A, F27A, and L31A—peptides either alone or in combination with U1 dsRNA for 18 h (Fig. 1, E–H).
RNA extracted from cells (Pure Link RNA Isolation Kit; Life Technologies) was quantified on the Nanodrop 2000/200C Spectrophotometer (Thermo Fisher Scientific). About 500 ng of purified RNA was used to synthesize complementary DNA with iScript cDNA Synthesis Kit (Bio-Rad). Predeveloped Taqman (Thermo Fisher Scientific) gene expression assays were used to evaluate mRNA transcript levels. Taqman cycling conditions were used as previously described ([9], [45]). All experiments were performed on a CFX96 system (Bio-Rad). Fold change relative to GAPDH was calculated using the Livak ΔΔCt method ([46]).

[3] = test system: S. aureus strain USA300 and SA112, GAS; assay: Bacterial growth inhibition (OD600), Gram-positive strains; assay type: cell-based, Staphylococcus aureus; group A Streptococcus; conditions: 0-50 µM overnight, OD 600, n = 3, S. aureus USA300, SA113 (SA112 in text)
Description: as §2
(§3) Methicillin-resistant S. aureus USA300 and methicillin-sensitive S. aureus SA113 (American Type Culture Collection 35556) were cultured in 3% tryptic soy broth overnight at 37 °C with shaking at 250 rpm. GAS M49 strain NZ131 was cultured in Todd Hewitt broth supplemented with 1% yeast extract overnight at 37 °C without shaking. E. coli R1 strain RS218 was cultured in LB broth overnight at 37 °C with shaking at 250 rpm. MIC values were determined using a round-bottom 96-well microdilution method with RPMI cell culture media (as a source of Ca^2+ and Mg^2+) supplemented with tryptic soy broth, Todd Hewitt broth/yeast extract, or LB to facilitate growth of the respective bacterial strains. Overnight bacterial cultures were subcultured into fresh broth and grown to midlate log phase indicated by an absorbance at 600 nm value between 0.8 and 1.0 for each bacterial strain. The absorbance was then normalized to provide a concentration of 1 × 10^7 colony-forming units/ml in RPMI medium. The LL-34 parent and alanine scan mutants were serially diluted into the 96-well microtiter plates containing prewarmed RPMI bacterial growth medium. A 10 μl aliquot of the midlate log phase bacteria was inoculated into the 96-well microtiter plates that contained 95 μl of RPMI medium with or without the LL-34 peptide dilutions and incubated for 16 to 18 h at […] with shaking at 200 rpm. Inhibition of growth was determined by measuring the absorbance at 600 nm readings of each well using a microplate reader (Infinite M200 Pro; Tecan). The MIC of each bacterial strain was determined by the lowest peptide concentration that inhibited more than 80% bacterial growth.
(§4) (A) NHEKs and HDMECs (B) were treated with LL34- parent peptide and all the 34 alanine substituted peptides (Pep L1A-Pep R34A) and LL37 at 2 µM for 16 h. IL-6 protein secretion was assessed with ELISA (n=3) (C-F) LL34-Parent, LL34 F5A, LL34 I24A, LL34 F27A, and LL34 L31A peptides were incubated with S. aureus USA 300, S. aureus SA113, Group A Streptococcus (GAS) and E. coli at increasing concentrations (0-50 µM) overnight, and bacterial culture growth was assayed as absorbance at OD 600 (n=3).

[4] = test system: normal human epidermal keratinocytes (NHEKs); assay: LDH release cytotoxicity assay in keratinocytes; assay type: cell-based; conditions: minimal concentration giving 50% LDH release by NHEKs
Procedure, shortened: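 Normal human epidermal keratinocytes were exposed to LL-34 parent and alanine-substituted peptides. Cytotoxicity was read as LDH release in fresh culture supernatants after treatment, using a commercial kit, and reported as the minimal concentration showing toxicity.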

Escherichia coli = assay: Bacterial growth inhibition (OD600), E. coli; assay type: cell-based; conditions: 0-50 µM overnight, OD 600, n = 3
Description: as §2, §3, §4

[5] = test system: methicillin-resistant Staphylococcus aureus strain USA300; assay type: cell-based; conditions: MIC comparison with parent (MIC 25 μM); 18 h
Text: Since LL-34 was the minimal truncation mutant of LL-37 that retained both antimicrobial and immune modulatory activity, we prepared a series of synthetic peptides with sequential substitutions of alanine at each amino acid position of the LL-34 parent peptide (Table 1). We compared the minimum inhibitory concentration (MIC) for the LL-34 parent peptide and the alanine mutants (LL-34 peptides—L1A and R34A) against methicillin-resistant Staphylococcus aureus strain USA300 (Fig. 1A). LL-34 peptides were incubated at concentrations of 0 to 100 μM with bacteria. The minimal concentration at which no growth was observed was noted after 18 h of incubation. […] Because of these changes in the MIC against S. aureus between the mutants, we investigated the effective toxicity profile of the peptides in normal human epidermal keratinocytes (NHEKs) by lactate dehydrogenase (LDH) release assay (Table 1). […] Most other peptides were cytotoxic at a minimal concentration of 10 μM, whereas LL-34—K15A was toxic at a concentration of 2.5 μM.
as §3

For `CC[C@H](C)[C@H](NC(=O)[C@H](CCCCN)NC(=O)[C@H](CCC(=O)O)NC(=O)[C@H](CCCCN)NC(=O)[C@H](CO)NC(=O)[C@H](CCCCN)NC(=O)[C@H](CCCNC(=N)N)NC(=O)[C@H](Cc1ccccc1)NC(=O)[C@H](C)NC(=O)[C@H](CC(=O)O)NC(=O)CNC(=O)[C@H](CC(C)C)NC(=O)[C@@H](N)CC(C)C)C(=O)NCC(=O)N[C@@H](CCCCN)C(=O)N[C@@H](CCC(=O)O)C(=O)N[C@@H](Cc1ccccc1)C(=O)N[C@@H](CCCCN)C(=O)N[C@@H](CCCNC(=N)N)C(=O)N[C@H](C(=O)N[C@H](C(=O)N[C@@H](CCC(N)=O)C(=O)N[C@@H](CCCNC(=N)N)C(=O)N[C@H](C(=O)N[C@@H](CCCCN)C(=O)N[C@@H](CC(=O)O)C(=O)N[C@@H](Cc1ccccc1)C(=O)N[C@@H](CC(C)C)C(=O)N[C@@H](CCCNC(=N)N)C(=O)N[C@@H](CC(N)=O)C(=O)N[C@@H](CC(C)C)C(=O)N[C@H](C(=O)N1CCC[C@H]1C(=O)N[C@@H](CCCNC(=N)N)C(=O)O)C(C)C)[C@@H](C)CC)C(C)C)[C@@H](C)CC` [LL-34—F5A] (H-LLGDAFRKSKEKIGKEFKRIVQRIKDFLRNLVPR-OH), the “IL-6 protein secretion, cotreatment with U1 dsRNA, vs U1 dsRNA + LL-34 parent” value [1] was “reduced secretion of IL-6 protein”, the “Gene expression of IL6, IFNB1, and CXCL10, cotreatment with U1 dsRNA” value ([2]; U1 dsRNA 2.5 μg/ml + peptide 2 μM) was “reduction in gene expression” and the “Gene expression of TSLP, peptide alone” value ([2]; peptide 2 μM alone, GAPDH reference) was “increased gene expression of TSLP”. The “Basal expression of IL6, IFNB1, and CXCL10, peptide alone” value ([2]; peptide 2 μM alone) was “not affected”, the “Capacity to inhibit growth of Gram-positive bacteria” value [3] was “increased capacity to inhibit growth of most of the tested Gram-positive bacteria” and the “Minimal cytotoxic concentration in NHEK (LD50)” value [4] was 10 µM. The “Action against Gram-negative E. coli” value (Escherichia coli) was “little action”.

`CC[C@H](C)[C@H](NC(=O)[C@H](CCCCN)NC(=O)[C@H](CCC(=O)O)NC(=O)[C@H](CCCCN)NC(=O)[C@H](CO)NC(=O)[C@H](CCCCN)NC(=O)[C@H](CCCNC(=N)N)NC(=O)[C@H](Cc1ccccc1)NC(=O)[C@H](Cc1ccccc1)NC(=O)[C@H](CC(=O)O)NC(=O)CNC(=O)[C@H](CC(C)C)NC(=O)[C@@H](N)CC(C)C)C(=O)NCC(=O)N[C@@H](CCCCN)C(=O)N[C@@H](CCC(=O)O)C(=O)N[C@@H](Cc1ccccc1)C(=O)N[C@@H](CCCCN)C(=O)N[C@@H](CCCNC(=N)N)C(=O)N[C@H](C(=O)N[C@H](C(=O)N[C@@H](CCC(N)=O)C(=O)N[C@@H](CCCNC(=N)N)C(=O)N[C@H](C(=O)N[C@@H](CCCCN)C(=O)N[C@@H](CC(=O)O)C(=O)N[C@@H](Cc1ccccc1)C(=O)N[C@@H](C)C(=O)N[C@@H](CCCNC(=N)N)C(=O)N[C@@H](CC(N)=O)C(=O)N[C@@H](CC(C)C)C(=O)N[C@H](C(=O)N1CCC[C@H]1C(=O)N[C@@H](CCCNC(=N)N)C(=O)O)C(C)C)[C@@H](C)CC)C(C)C)[C@@H](C)CC` [LL-34—L28A] (H-LLGDFFRKSKEKIGKEFKRIVQRIKDFARNLVPR-OH) was tested, and the “IL-6 protein secretion, cotreatment with U1 dsRNA, vs U1 dsRNA + LL-34 parent” value [1] was “reduced secretion of IL-6 protein”, the “Minimal cytotoxic concentration in NHEK (LD50)” value [4] was 5 µM and the “Antimicrobial potency against S. aureus USA300 compared with LL-34 parent peptide” value [5] was “killed S. aureus USA300 more potently”.
